{"source": "PubChem BioAssay (NCI)", "test_in_all_cases": "DTP human tumour cell line panel, 48 h", "key": {"[1]": {"system": "A498 renal"}, "[2]": {"system": "A549 NSCLC"}, "[3]": {"system": "ACHN renal"}, "[4]": {"system": "BT-549 breast"}, "[5]": {"system": "CAKI-1 renal"}, "[6]": {"system": "COLO 205 colon"}, "[7]": {"system": "DU-145 prostate"}, "[8]": {"system": "EKVX NSCLC"}, "[9]": {"system": "HCC-2998 colon"}, "[10]": {"system": "HCT-116 colon"}, "[11]": {"system": "HCT-15 colon"}, "[12]": {"system": "HL-60(TB) leukemia"}, "[13]": {"system": "HOP-62 NSCLC"}, "[14]": {"system": "HOP-92 NSCLC"}, "[15]": {"system": "HS 578T breast"}, "[16]": {"system": "HT29 colon"}, "[17]": {"system": "IGROV1 ovarian"}, "[18]": {"system": "K-562 leukemia"}, "[19]": {"system": "KM12 colon"}, "[20]": {"system": "LOX IMVI melanoma"}, "[21]": {"system": "M14 melanoma"}, "[22]": {"system": "MALME-3M melanoma"}, "[23]": {"system": "MDA-MB-231 breast"}, "[24]": {"system": "MDA-MB-435"}, "[25]": {"system": "MOLT-4 leukemia"}, "[26]": {"system": "NCI-H226 lung"}, "[27]": {"system": "NCI-H23 lung"}, "[28]": {"system": "NCI-H460 lung"}, "[29]": {"system": "NCI-H522 lung"}, "[30]": {"system": "NCI/ADR-RES ovarian"}, "[31]": {"system": "OVCAR-3 ovarian"}, "[32]": {"system": "OVCAR-4 ovarian"}, "[33]": {"system": "OVCAR-5 ovarian"}, "[34]": {"system": "OVCAR-8 ovarian"}, "[35]": {"system": "PC-3 prostate"}, "[36]": {"system": "RPMI-8226 leukemia"}, "[37]": {"system": "RXF 393 renal"}, "[38]": {"system": "SF-268 CNS"}, "[39]": {"system": "SF-295 CNS"}, "[40]": {"system": "SF-539 CNS"}, "[41]": {"system": "SK-MEL-2 melanoma"}, "[42]": {"system": "SK-MEL-28 melanoma"}, "[43]": {"system": "SK-MEL-5 melanoma"}, "[44]": {"system": "SK-OV-3 ovarian"}, "[45]": {"system": "SN12C renal"}, "[46]": {"system": "SNB-19 CNS"}, "[47]": {"system": "SW-620 colon"}, "[48]": {"system": "T-47D breast"}, "[49]": {"system": "TK-10 renal"}, "[50]": {"system": "U251 CNS"}, "[51]": {"system": "UACC-257 melanoma"}, "[52]": {"system": "UACC-62 melanoma"}, "[53]": {"system": "UO-31 renal"}}, "note": "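Values below derive from 48-hour exposures of cells grown in 96-well plates, with endpoints linearly interpolated between the two concentrations bracketing the appropriate inhibition level. Abbreviation: GI50, concentration required for 50% inhibition of growth. Definition used: TGI = concentration required for complete inhibition of growth.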"}
{"smiles": "Cc1cc(N/N=C/c2nc(-c3ccc(Cl)cc3)oc2C)c2cc(Br)ccc2n1", "values": [{"measurement": "GI50", "setting": "[1]", "value": 10.4, "unit": "µM"}, {"measurement": "TGI", "setting": "[1]", "value": 26.5, "unit": "µM"}, {"measurement": "GI50", "setting": "[2]", "value": 1.77, "unit": "µM"}, {"measurement": "TGI", "setting": "[2]", "value": 3.71, "unit": "µM"}, {"measurement": "GI50", "setting": "[3]", "value": 2.25, "unit": "µM"}, {"measurement": "TGI", "setting": "[3]", "value": 5.01, "unit": "µM"}, {"measurement": "GI50", "setting": "[4]", "value": 6.91, "unit": "µM"}, {"measurement": "TGI", "setting": "[4]", "value": 19.9, "unit": "µM"}, {"measurement": "GI50", "setting": "[5]", "value": 2.04, "unit": "µM"}, {"measurement": "TGI", "setting": "[5]", "value": 4.71, "unit": "µM"}, {"measurement": "GI50", "setting": "[6]", "value": 2.86, "unit": "µM"}, {"measurement": "TGI", "setting": "[6]", "value": 10.6, "unit": "µM"}, {"measurement": "GI50", "setting": "[7]", "value": 2.66, "unit": "µM"}, {"measurement": "TGI", "setting": "[7]", "value": 7.67, "unit": "µM"}, {"measurement": "GI50", "setting": "[8]", "value": 14.4, "unit": "µM"}, {"measurement": "TGI", "setting": "[8]", "value": 28.1, "unit": "µM"}, {"measurement": "GI50", "setting": "[9]", "value": 3.58, "unit": "µM"}, {"measurement": "TGI", "setting": "[9]", "value": 12.5, "unit": "µM"}, {"measurement": "GI50", "setting": "[10]", "value": 2, "unit": "µM"}, {"measurement": "TGI", "setting": "[10]", "value": 4.04, "unit": "µM"}, {"measurement": "GI50", "setting": "[11]", "value": 1.79, "unit": "µM"}, {"measurement": "TGI", "setting": "[11]", "value": 4.42, "unit": "µM"}, {"measurement": "GI50", "setting": "[12]", "value": 2.2, "unit": "µM"}, {"measurement": "TGI", "setting": "[12]", "value": 5.44, "unit": "µM"}, {"measurement": "GI50", "setting": "[13]", "value": 1.87, "unit": "µM"}, {"measurement": "TGI", "setting": "[13]", "value": 3.94, "unit": "µM"}, {"measurement": "GI50", "setting": "[14]", "value": 3.24, "unit": "µM"}, {"measurement": "TGI", "setting": "[14]", "value": 16.4, "unit": "µM"}, {"measurement": "GI50", "setting": "[15]", "value": 4.33, "unit": "µM"}, {"measurement": "TGI", "setting": "[15]", "value": 28.3, "unit": "µM"}, {"measurement": "GI50", "setting": "[16]", "value": 2.31, "unit": "µM"}, {"measurement": "TGI", "setting": "[16]", "value": 5.99, "unit": "µM"}, {"measurement": "GI50", "setting": "[17]", "value": 3.14, "unit": "µM"}, {"measurement": "TGI", "setting": "[17]", "value": 16.7, "unit": "µM"}, {"measurement": "GI50", "setting": "[18]", "value": 1.1, "unit": "µM"}, {"measurement": "TGI", "setting": "[18]", "value": 3.61, "unit": "µM"}, {"measurement": "GI50", "setting": "[19]", "value": 2.21, "unit": "µM"}, {"measurement": "TGI", "setting": "[19]", "value": 5.43, "unit": "µM"}, {"measurement": "GI50", "setting": "[20]", "value": 1.93, "unit": "µM"}, {"measurement": "TGI", "setting": "[20]", "value": 3.73, "unit": "µM"}, {"measurement": "GI50", "setting": "[21]", "value": 2.02, "unit": "µM"}, {"measurement": "TGI", "setting": "[21]", "value": 4.55, "unit": "µM"}, {"measurement": "GI50", "setting": "[22]", "value": 1.91, "unit": "µM"}, {"measurement": "TGI", "setting": "[22]", "value": 4.23, "unit": "µM"}, {"measurement": "GI50", "setting": "[23]", "value": 3.43, "unit": "µM"}, {"measurement": "TGI", "setting": "[23]", "value": 12, "unit": "µM"}, {"measurement": "GI50", "setting": "[24]", "value": 1.91, "unit": "µM"}, {"measurement": "TGI", "setting": "[24]", "value": 3.94, "unit": "µM"}, {"measurement": "GI50", "setting": "[25]", "value": 2.66, "unit": "µM"}, {"measurement": "TGI", "setting": "[25]", "value": 13.5, "unit": "µM"}, {"measurement": "GI50", "setting": "[26]", "value": 17.4, "unit": "µM"}, {"measurement": "TGI", "setting": "[26]", "value": 50.4, "unit": "µM"}, {"measurement": "GI50", "setting": "[27]", "value": 6, "unit": "µM"}, {"measurement": "TGI", "setting": "[27]", "value": 23.6, "unit": "µM"}, {"measurement": "GI50", "setting": "[28]", "value": 1.88, "unit": "µM"}, {"measurement": "TGI", "setting": "[28]", "value": 3.67, "unit": "µM"}, {"measurement": "GI50", "setting": "[29]", "value": 2.02, "unit": "µM"}, {"measurement": "TGI", "setting": "[29]", "value": 4.51, "unit": "µM"}, {"measurement": "GI50", "setting": "[30]", "value": 2.17, "unit": "µM"}, {"measurement": "TGI", "setting": "[30]", "value": 4.94, "unit": "µM"}, {"measurement": "GI50", "setting": "[31]", "value": 1.96, "unit": "µM"}, {"measurement": "TGI", "setting": "[31]", "value": 3.89, "unit": "µM"}, {"measurement": "GI50", "setting": "[32]", "value": 1.87, "unit": "µM"}, {"measurement": "TGI", "setting": "[32]", "value": 3.69, "unit": "µM"}, {"measurement": "GI50", "setting": "[33]", "value": 10.1, "unit": "µM"}, {"measurement": "TGI", "setting": "[33]", "value": 21.9, "unit": "µM"}, {"measurement": "GI50", "setting": "[34]", "value": 2.41, "unit": "µM"}, {"measurement": "TGI", "setting": "[34]", "value": 5.97, "unit": "µM"}, {"measurement": "GI50", "setting": "[35]", "value": 2.31, "unit": "µM"}, {"measurement": "TGI", "setting": "[35]", "value": 6.07, "unit": "µM"}, {"measurement": "GI50", "setting": "[36]", "value": 1.95, "unit": "µM"}, {"measurement": "TGI", "setting": "[36]", "value": 4.81, "unit": "µM"}, {"measurement": "GI50", "setting": "[37]", "value": 4.1, "unit": "µM"}, {"measurement": "TGI", "setting": "[37]", "value": 17.2, "unit": "µM"}, {"measurement": "GI50", "setting": "[38]", "value": 3.7, "unit": "µM"}, {"measurement": "TGI", "setting": "[38]", "value": 28.2, "unit": "µM"}, {"measurement": "GI50", "setting": "[39]", "value": 12.4, "unit": "µM"}, {"measurement": "TGI", "setting": "[39]", "value": 26.6, "unit": "µM"}, {"measurement": "GI50", "setting": "[40]", "value": 1.9, "unit": "µM"}, {"measurement": "TGI", "setting": "[40]", "value": 3.69, "unit": "µM"}, {"measurement": "GI50", "setting": "[41]", "value": 17.5, "unit": "µM"}, {"measurement": "TGI", "setting": "[41]", "value": 32.2, "unit": "µM"}, {"measurement": "GI50", "setting": "[42]", "value": 2.07, "unit": "µM"}, {"measurement": "TGI", "setting": "[42]", "value": 4.49, "unit": "µM"}, {"measurement": "GI50", "setting": "[43]", "value": 11.7, "unit": "µM"}, {"measurement": "TGI", "setting": "[43]", "value": 23.9, "unit": "µM"}, {"measurement": "GI50", "setting": "[44]", "value": 5.84, "unit": "µM"}, {"measurement": "TGI", "setting": "[44]", "value": 18.3, "unit": "µM"}, {"measurement": "GI50", "setting": "[45]", "value": 2.05, "unit": "µM"}, {"measurement": "TGI", "setting": "[45]", "value": 4.38, "unit": "µM"}, {"measurement": "GI50", "setting": "[46]", "value": 4.13, "unit": "µM"}, {"measurement": "TGI", "setting": "[46]", "value": 17.7, "unit": "µM"}, {"measurement": "GI50", "setting": "[47]", "value": 1.87, "unit": "µM"}, {"measurement": "TGI", "setting": "[47]", "value": 4.23, "unit": "µM"}, {"measurement": "GI50", "setting": "[48]", "value": 1.79, "unit": "µM"}, {"measurement": "TGI", "setting": "[48]", "value": 3.51, "unit": "µM"}, {"measurement": "GI50", "setting": "[49]", "value": 1.8, "unit": "µM"}, {"measurement": "TGI", "setting": "[49]", "value": 3.49, "unit": "µM"}, {"measurement": "GI50", "setting": "[50]", "value": 1.73, "unit": "µM"}, {"measurement": "TGI", "setting": "[50]", "value": 3.29, "unit": "µM"}, {"measurement": "GI50", "setting": "[51]", "value": 3.49, "unit": "µM"}, {"measurement": "TGI", "setting": "[51]", "value": 15, "unit": "µM"}, {"measurement": "GI50", "setting": "[52]", "value": 2.02, "unit": "µM"}, {"measurement": "TGI", "setting": "[52]", "value": 4.43, "unit": "µM"}, {"measurement": "GI50", "setting": "[53]", "value": 13.9, "unit": "µM"}, {"measurement": "TGI", "setting": "[53]", "value": 26.8, "unit": "µM"}]}
